Experiments:
Assay type in all cases: in vitro ADME
[1] = Distribution between red blood cells and plasma in human blood
[2] = biological target: T1, CYP2C8 (Homo sapiens, UniProt P10632); assay: Reversible CYP inhibition in pooled human liver microsomes
T1 sequence (P10632 1-490): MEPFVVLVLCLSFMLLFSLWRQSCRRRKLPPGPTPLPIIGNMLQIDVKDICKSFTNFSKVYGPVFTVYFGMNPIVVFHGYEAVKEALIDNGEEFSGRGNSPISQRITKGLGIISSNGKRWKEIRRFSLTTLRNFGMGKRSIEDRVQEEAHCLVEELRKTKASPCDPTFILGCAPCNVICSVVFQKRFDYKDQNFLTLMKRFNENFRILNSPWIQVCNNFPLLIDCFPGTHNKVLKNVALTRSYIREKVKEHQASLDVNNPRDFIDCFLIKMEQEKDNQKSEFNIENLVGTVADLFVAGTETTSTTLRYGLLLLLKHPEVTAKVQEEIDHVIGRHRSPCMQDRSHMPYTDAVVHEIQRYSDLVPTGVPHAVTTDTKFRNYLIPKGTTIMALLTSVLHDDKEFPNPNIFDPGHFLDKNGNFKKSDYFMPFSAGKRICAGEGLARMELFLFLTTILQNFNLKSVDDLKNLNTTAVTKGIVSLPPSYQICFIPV

[3] = biological target: T2, MRP2 (Homo sapiens, UniProt Q92887); assay: Inhibition of ATP-dependent probe uptake in Sf9 membrane vesicles; conditions: MRP2-mediated ATP-dependent uptake of ethacrynic acid glutathione conjugate
T2 construct: purchased Thermo Fisher Scientific; host or cells: Sf9
T2 sequence (Q92887 whole entry): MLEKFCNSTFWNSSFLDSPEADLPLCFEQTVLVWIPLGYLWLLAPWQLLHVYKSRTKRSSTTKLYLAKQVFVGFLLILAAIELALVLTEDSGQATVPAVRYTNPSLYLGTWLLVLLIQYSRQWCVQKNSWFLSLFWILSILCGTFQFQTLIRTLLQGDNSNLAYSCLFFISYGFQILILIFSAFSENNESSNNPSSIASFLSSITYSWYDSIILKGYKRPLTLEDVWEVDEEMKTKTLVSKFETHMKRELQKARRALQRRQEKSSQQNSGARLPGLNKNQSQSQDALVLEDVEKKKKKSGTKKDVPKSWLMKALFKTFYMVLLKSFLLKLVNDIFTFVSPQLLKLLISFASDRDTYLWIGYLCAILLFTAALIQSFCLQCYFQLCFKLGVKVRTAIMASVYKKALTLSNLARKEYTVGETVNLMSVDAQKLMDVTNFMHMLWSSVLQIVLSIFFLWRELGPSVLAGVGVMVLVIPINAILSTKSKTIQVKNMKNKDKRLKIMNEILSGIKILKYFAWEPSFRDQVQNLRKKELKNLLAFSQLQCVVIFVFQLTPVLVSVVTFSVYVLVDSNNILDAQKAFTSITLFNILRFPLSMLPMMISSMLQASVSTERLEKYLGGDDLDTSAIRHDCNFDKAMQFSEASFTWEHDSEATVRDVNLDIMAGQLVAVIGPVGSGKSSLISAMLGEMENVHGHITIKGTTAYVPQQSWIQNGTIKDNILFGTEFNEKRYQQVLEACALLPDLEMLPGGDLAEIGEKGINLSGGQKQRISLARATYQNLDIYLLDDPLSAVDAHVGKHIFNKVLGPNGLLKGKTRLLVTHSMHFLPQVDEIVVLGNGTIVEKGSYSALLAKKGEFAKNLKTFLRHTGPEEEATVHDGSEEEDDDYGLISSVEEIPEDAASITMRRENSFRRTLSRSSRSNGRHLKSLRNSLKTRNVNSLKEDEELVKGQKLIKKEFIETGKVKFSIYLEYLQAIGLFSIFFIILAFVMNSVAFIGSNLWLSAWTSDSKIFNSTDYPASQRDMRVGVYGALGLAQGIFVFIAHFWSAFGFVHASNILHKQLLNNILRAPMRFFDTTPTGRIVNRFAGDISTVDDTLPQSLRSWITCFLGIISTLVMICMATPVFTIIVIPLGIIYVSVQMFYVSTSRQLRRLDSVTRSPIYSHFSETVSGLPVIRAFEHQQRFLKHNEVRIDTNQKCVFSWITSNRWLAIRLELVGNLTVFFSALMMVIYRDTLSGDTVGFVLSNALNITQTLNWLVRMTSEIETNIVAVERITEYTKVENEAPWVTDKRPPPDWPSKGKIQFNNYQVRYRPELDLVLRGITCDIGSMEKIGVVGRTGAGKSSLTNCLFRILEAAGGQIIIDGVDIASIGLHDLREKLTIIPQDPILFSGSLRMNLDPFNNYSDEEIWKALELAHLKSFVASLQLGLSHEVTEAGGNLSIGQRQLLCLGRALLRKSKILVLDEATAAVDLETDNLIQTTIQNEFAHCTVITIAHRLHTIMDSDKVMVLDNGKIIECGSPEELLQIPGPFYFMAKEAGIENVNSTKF

[4] = biological target: T3, MATE1 (Homo sapiens, UniProt Q96FL8); assay: Inhibition of transporter-mediated probe uptake in CHO-K1-MATE1 cells
T3 construct: expressed in transfected cells; host or cells: CHO-K1
T3 sequence (Q96FL8 1-570): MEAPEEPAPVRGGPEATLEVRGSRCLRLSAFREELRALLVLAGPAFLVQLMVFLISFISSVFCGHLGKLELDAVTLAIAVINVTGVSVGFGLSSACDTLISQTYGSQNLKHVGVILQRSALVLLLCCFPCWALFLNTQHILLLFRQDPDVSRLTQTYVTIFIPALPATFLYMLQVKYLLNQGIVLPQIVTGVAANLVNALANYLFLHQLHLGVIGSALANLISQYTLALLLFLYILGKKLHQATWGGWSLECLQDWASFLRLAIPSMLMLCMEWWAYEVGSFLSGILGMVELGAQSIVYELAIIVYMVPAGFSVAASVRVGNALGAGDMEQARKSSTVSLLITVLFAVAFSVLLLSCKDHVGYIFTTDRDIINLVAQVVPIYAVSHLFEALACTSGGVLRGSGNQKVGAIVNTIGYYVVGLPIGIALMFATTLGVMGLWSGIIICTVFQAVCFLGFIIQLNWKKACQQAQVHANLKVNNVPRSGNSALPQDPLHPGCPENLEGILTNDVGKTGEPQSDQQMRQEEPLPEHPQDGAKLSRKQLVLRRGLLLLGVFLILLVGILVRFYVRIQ

[5] = biological target: T3, MATE1; assay: Islatravir uptake as substrate, CHO-K1 vs CHO-K1-MATE1 cells
[6] = biological target: MDR1 P-gp (Homo sapiens, UniProt P08183); parameters: expressed in transfected cells; host or cells: LLC-PK1
Sequence of MDR1 P-gp (P08183 whole entry): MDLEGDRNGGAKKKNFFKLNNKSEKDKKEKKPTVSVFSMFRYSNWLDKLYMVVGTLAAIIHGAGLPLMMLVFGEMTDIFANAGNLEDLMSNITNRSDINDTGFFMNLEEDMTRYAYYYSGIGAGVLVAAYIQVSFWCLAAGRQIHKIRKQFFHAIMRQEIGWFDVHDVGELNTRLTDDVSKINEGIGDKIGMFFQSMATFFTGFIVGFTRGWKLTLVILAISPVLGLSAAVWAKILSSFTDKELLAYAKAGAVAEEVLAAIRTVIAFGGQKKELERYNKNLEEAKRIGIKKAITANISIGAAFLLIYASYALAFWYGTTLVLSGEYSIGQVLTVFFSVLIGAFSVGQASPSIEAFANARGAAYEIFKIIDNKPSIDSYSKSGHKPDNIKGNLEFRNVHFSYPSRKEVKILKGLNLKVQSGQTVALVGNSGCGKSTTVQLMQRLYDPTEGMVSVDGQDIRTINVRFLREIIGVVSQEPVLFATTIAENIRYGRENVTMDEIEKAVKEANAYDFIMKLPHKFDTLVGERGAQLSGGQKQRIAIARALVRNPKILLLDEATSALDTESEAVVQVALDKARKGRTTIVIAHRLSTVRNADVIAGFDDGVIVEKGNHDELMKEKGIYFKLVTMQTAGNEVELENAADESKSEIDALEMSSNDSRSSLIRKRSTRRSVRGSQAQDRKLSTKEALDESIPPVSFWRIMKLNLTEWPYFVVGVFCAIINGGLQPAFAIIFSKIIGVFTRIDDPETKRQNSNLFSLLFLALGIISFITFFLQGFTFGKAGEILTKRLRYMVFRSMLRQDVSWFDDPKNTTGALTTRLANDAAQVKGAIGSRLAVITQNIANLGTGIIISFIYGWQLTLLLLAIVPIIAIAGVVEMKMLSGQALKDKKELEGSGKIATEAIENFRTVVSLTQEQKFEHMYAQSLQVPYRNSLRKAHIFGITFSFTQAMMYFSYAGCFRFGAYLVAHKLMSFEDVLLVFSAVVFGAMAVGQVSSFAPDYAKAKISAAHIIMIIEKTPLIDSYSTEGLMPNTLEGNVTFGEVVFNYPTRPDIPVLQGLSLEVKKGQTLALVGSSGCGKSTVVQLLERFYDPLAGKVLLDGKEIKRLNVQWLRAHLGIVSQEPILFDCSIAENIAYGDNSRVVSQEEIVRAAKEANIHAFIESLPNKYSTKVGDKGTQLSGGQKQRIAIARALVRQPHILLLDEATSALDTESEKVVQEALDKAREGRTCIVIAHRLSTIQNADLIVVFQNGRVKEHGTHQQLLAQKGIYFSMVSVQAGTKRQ

[7] = biological target: T4, BCRP (Homo sapiens, UniProt Q9UNQ0); assay: Inhibition of BCRP-mediated methotrexate uptake in Sf9 membrane vesicles; parameters: purchased Thermo Fisher Scientific; host or cells: Sf9
T4 sequence (Q9UNQ0 1-655): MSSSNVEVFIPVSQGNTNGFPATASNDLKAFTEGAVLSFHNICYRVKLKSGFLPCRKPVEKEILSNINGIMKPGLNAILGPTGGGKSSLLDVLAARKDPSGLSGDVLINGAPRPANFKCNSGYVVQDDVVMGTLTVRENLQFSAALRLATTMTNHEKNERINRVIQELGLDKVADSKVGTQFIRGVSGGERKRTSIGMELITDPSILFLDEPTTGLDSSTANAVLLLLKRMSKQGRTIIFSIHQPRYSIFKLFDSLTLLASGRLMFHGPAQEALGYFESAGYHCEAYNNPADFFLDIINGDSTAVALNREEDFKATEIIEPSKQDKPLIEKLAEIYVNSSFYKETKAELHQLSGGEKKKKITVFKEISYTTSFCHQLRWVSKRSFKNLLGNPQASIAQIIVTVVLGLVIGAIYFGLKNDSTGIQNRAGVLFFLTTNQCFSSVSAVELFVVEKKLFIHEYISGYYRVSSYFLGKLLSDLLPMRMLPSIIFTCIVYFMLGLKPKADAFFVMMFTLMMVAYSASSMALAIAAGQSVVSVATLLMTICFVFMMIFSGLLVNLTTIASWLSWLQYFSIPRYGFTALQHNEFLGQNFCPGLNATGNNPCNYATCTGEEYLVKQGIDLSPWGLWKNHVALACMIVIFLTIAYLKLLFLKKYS

C#C[C@]1(CO)O[C@@H](n2cnc3c(N)nc(F)nc32)C[C@@H]1O [Islatravir, 4′-Ethynyl-2-fluoro-2′-deoxyadenosine]
concentration dependence of blood:plasma partitioning ([1]; 0.01 to 10 µM): did not exhibit concentration-dependent partitioning
blood plasma ratio at 60 min, 0.1 µM ([1]; whole blood, human blood, 0.1 µM, ± standard error, read-out: mean blood:plasma concentration ratio): 1.3
DDI Potential ([2]; CYP2C8 reversible inhibition, FDA, EMA, PMDA guidance): Low risk
Maximum Unbound Plasma Concentration (Imax,u) to Ki,u Ratio ([2]; CYP2C8 reversible, 60 mg, Cmax 1.01 µM, fu,p 0.96, Ki,u = IC50/2): <0.019 µM
IC50 ([2]; reversible, CYP2C8 amodiaquine N-deethylation, read-out: Islatravir IC50): > 100 µM
IC50 [3]: > 100 µM
IC50 ([4]; MATE1, metformin uptake, read-out: Islatravir IC50): > 75 µM
Maximum Unbound Plasma Concentration (Imax,u) to IC50 Ratio ([4]; MATE1, 60 mg, Cmax 1.01 µM, fu,p 0.96): <0.013 µM
DDI Potential ([4]; MATE1 inhibition, FDA, EMA, PMDA guidance): Low risk
Islatravir Uptake Transporter-Expressing Cells ([5]; CHO-K1-MATE1, 2 µM [14C]islatravir, 20 min, mean ± SD, n = 3): 2.94 ± 0.20 pmole/10^6 Cells
Fold-Difference ([5]; MATE1, uptake into transporter-expressing cells to control cells, 20 min): 1.01
Islatravir Uptake Control Cells ([5]; MATE1 row, CHO-K1 control cells, 2 µM [14C]islatravir, 20 min, mean ± SD, n = 3): 2.90 ± 0.27 pmole/10^6 Cells
Conclusions ([5]; MATE1 substrate assessment): Non-substrate
DDI Potential ([6]; MDR1 P-gp inhibition, FDA, EMA, PMDA guidance): Low risk
IC50 ([6]; MDR1 P-gp-mediated digoxin transport, read-out: Islatravir IC50): > 200 µM
Maximum Unbound Plasma Concentration (Imax,u) to IC50 Ratio ([6]; MDR1 P-gp, 60 mg, Cmax 1.01 µM, fu,p 0.96): <0.005 µM
Intestinal Concentration (Igut) to IC50 Ratio ([6]; MDR1 P-gp, Igut = 60 mg/250 mL = 818 µM): <4.1 µM
DDI Potential ([7]; BCRP inhibition, FDA, EMA, PMDA guidance): Low risk
IC50 ([7]; BCRP-mediated methotrexate uptake, read-out: Islatravir IC50): > 100 µM
Maximum Unbound Plasma Concentration (Imax,u) to IC50 Ratio ([7]; BCRP, 60 mg, Cmax 1.01 µM, fu,p 0.96): <0.010 µM
Intestinal Concentration (Igut) to IC50 Ratio ([7]; BCRP, Igut = 60 mg/250 mL = 818 µM): <8.2 µM
inhibition at 5 min, 100 µM ([7]; human, BCRP-containing Sf9 membrane vesicles, probe [3H]methotrexate, 100 µM islatravir, membrane vesicle assay): 35%
